These results are taken from patent US20150005281A1, “PYRIMIDINE-2,4-DIAMINE DERIVATIVES AS KINASE INHIBITORS” (Cellzome Limited, priority 2011, published 2015).

The conditions of assay [1]: Changelian et al., 2003; cited from earlier work.
The next assay addresses T1, JAK3 (Homo sapiens, UniProt P52333).
T1 construct: endogenous in cells; host or cells: Molt4 (ATCC CRL-1582) and Ramos (ATCC CRL-1596) cells; mixed lysate 1:2
T1 sequence (P52333 1-1124): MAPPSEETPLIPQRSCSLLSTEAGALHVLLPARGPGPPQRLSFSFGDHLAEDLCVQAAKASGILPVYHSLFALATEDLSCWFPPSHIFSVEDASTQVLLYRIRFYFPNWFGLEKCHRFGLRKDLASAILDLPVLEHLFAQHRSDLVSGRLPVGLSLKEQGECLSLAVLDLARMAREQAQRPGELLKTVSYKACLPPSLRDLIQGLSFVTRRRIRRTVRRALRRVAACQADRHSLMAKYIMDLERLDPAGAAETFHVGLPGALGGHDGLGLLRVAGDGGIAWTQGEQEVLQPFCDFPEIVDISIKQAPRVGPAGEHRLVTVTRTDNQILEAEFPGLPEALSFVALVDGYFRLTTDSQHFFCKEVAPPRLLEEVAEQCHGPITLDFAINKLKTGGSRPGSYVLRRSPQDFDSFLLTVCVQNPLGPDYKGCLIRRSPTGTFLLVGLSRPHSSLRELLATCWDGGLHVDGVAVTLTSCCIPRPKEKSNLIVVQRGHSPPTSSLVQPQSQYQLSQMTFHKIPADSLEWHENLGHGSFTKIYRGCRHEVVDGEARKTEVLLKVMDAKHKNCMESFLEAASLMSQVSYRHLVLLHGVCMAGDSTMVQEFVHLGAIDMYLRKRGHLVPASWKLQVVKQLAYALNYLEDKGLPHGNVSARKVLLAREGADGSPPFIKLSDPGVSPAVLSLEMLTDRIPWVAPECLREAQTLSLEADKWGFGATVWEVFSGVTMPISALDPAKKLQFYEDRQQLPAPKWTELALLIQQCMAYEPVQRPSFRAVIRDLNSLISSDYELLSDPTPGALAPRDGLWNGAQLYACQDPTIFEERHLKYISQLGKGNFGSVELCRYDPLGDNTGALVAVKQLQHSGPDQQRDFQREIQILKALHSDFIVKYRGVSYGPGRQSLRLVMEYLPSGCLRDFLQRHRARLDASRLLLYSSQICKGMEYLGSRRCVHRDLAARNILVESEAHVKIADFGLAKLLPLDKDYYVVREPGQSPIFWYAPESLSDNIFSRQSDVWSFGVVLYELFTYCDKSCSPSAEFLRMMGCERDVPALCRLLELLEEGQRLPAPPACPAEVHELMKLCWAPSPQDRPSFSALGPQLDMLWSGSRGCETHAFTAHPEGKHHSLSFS
The experiment in a line: Kinobeads assay with immunodetection, JAK3. Format: binding. The conditions noted are these: for IC50: Kinobeads assay, mixed Molt4/Ramos lysate, read-out: Inhibition values (IC50) JAK3. Summed up: (§1)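 Mixed Molt4/Ramos lysate (1:2, 10 mg/mL protein) incubated 3 h in the cold with compound (1:3 series from 5 mM DMSO stock) and immobilized aminopyrido-pyrimidine Kinobeads. Bead-bound JAK1, JAK2, JAK3 and TYK2 eluted and quantified by antibody dot blot (Odyssey), IC50 from dose-response curves.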

The target in a further assay is T2, JAK2 (Homo sapiens, UniProt O60674).
T2 construct: endogenous in cells; host or cells: Molt4 (ATCC CRL-1582) and Ramos (ATCC CRL-1596) cells; mixed lysate 1:2
T2 sequence (O60674 whole entry): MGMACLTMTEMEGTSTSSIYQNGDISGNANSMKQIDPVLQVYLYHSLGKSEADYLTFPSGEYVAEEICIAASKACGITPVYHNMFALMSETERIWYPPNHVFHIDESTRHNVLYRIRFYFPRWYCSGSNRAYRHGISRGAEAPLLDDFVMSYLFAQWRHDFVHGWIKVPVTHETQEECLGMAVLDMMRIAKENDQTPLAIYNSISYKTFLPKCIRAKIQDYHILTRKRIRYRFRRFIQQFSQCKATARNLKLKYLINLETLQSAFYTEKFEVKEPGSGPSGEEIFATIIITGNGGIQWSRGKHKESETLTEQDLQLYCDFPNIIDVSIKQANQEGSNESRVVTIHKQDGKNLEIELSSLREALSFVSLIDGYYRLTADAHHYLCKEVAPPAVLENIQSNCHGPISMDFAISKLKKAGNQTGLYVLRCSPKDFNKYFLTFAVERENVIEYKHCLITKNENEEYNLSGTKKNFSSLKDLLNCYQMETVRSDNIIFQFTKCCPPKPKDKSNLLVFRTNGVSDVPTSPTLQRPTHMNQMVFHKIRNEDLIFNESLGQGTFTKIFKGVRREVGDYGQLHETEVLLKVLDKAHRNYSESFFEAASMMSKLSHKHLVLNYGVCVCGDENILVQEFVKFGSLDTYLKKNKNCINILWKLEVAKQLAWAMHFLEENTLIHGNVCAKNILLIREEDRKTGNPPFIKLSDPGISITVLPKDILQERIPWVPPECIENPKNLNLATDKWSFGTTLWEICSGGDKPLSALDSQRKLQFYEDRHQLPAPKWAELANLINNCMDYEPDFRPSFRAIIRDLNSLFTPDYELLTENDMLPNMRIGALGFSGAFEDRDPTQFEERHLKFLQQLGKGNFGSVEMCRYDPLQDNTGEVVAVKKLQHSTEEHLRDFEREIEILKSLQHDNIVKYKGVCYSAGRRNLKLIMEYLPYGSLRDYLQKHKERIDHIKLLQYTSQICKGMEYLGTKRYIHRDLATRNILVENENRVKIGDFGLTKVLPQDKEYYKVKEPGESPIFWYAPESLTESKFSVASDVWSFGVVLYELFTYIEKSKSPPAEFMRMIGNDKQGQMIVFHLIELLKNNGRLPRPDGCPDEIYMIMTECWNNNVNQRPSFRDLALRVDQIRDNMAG
The experiment in a line: Kinobeads assay with immunodetection, JAK2. The conditions noted are these: mixed Molt4/Ramos lysate, read-out: Inhibition values (IC50) JAK2. Format: binding. In outline: as §1

A further assay addresses T3, JAK1 (Homo sapiens, UniProt P23458).
T3 construct: endogenous in cells; host or cells: Molt4 (ATCC CRL-1582) and Ramos (ATCC CRL-1596) cells; mixed lysate 1:2
In words: Kinobeads assay with immunodetection, JAK1. Format: binding. The conditions noted are these: for IC50: Kinobeads assay, mixed Molt4/Ramos lysate, read-out: Inhibition values (IC50) JAK1. Summed up:
as §1

In a further assay the target is T4, TYK2 (Homo sapiens, UniProt P29597).
T4 construct: endogenous in cells; host or cells: Molt4 (ATCC CRL-1582) and Ramos (ATCC CRL-1596) cells; mixed lysate 1:2
T4 sequence (P29597 whole entry): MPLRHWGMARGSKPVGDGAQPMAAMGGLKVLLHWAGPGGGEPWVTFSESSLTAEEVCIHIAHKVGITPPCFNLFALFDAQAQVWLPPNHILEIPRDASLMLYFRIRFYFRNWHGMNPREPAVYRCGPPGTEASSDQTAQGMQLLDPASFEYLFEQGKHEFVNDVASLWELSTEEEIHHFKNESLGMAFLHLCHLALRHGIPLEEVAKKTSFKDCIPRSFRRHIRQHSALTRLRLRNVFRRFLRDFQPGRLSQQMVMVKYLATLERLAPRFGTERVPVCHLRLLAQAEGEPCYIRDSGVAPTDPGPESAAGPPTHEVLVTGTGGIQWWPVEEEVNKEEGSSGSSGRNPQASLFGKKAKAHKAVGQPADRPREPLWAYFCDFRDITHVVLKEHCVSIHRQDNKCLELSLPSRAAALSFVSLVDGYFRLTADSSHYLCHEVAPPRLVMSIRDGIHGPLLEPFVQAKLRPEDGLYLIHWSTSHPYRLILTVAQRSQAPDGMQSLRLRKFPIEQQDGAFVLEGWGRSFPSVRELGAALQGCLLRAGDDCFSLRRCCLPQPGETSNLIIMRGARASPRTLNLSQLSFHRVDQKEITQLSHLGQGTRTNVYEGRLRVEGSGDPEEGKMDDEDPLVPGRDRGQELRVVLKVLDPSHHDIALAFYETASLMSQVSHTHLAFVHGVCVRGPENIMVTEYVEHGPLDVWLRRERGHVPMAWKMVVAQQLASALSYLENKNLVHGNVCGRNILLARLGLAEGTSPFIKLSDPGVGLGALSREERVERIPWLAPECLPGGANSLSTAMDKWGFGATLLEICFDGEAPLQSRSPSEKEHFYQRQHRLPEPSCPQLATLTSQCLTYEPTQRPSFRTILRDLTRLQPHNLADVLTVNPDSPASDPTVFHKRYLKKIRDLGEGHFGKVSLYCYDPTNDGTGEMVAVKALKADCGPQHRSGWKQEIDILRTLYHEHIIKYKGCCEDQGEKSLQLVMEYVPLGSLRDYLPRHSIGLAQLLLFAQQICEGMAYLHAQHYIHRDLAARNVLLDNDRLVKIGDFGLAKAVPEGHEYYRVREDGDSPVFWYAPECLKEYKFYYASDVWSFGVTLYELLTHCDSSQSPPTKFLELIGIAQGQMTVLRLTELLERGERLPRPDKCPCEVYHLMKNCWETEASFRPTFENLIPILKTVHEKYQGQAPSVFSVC
The experiment in a line: Kinobeads assay with immunodetection, TYK2. The class given is binding. The conditions noted are these: for IC50: Kinobeads assay, mixed Molt4/Ramos lysate, read-out: Inhibition values (IC50) Tyk2. Summed up:
as §1

T3 sequence (P23458 whole entry): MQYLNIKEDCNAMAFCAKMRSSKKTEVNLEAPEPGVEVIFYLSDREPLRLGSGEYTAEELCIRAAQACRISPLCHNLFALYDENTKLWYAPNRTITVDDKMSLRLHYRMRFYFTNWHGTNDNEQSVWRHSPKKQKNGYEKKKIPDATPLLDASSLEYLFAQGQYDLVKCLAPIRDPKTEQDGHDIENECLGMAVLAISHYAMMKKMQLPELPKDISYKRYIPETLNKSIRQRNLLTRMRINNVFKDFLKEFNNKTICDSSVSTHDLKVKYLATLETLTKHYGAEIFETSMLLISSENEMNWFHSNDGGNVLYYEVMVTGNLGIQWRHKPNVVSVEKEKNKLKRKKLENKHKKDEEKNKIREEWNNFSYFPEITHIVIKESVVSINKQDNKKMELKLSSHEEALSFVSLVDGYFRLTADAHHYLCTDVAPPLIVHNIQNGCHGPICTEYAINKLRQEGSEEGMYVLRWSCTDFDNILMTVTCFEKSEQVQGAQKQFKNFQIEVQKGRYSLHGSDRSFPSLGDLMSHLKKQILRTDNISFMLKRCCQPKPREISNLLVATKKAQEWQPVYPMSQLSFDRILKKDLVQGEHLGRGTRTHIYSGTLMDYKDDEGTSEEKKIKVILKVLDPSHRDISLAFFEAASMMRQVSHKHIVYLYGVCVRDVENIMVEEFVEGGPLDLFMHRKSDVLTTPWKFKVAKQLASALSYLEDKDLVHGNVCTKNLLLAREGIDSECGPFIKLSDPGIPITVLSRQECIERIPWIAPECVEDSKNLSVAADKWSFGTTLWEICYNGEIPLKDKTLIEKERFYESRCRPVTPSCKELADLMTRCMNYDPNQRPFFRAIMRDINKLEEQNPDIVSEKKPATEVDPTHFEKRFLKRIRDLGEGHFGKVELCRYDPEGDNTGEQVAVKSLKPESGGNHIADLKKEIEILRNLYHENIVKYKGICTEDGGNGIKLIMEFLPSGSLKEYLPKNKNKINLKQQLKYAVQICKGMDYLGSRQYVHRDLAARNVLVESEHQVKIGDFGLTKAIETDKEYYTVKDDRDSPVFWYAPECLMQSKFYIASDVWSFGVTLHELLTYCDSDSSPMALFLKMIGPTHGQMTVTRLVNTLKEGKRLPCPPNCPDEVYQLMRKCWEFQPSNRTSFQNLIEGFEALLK

As for `C[C@@H]1CCN(C(=O)CC#N)C[C@@H]1N(C)c1ncnc2[nH]ccc12` [CP-690,550], in assay [1], the “efficacy in organ transplantation model” value is given as “efficacy”.
For the compound `Cn1cc(Nc2ncc(Cl)c(NC[C@H]3CCN(CCS(C)(=O)=O)C3)n2)cn1` [Example 55, (R)-5-chloro-N^2-(1-methyl-1H-pyrazol-4-yl)-N^4-((1-(2-(methylsulfonyl)ethyl)pyrrolidin-3-yl)methyl)pyrimidine-2,4-diamine], the IC50 at JAK3 was under 100 nM; on JAK2 it was 100 to 1000 nM; on JAK1 it was under 100 nM; on TYK2, 100 to 1000 nM. For the same compound, the “Selectivity ratio over JAK2, JAK1” value at JAK1 was “JAK1 = 11”.
On to `Cn1cc(Nc2ncc(Cl)c(NC[C@@H]3CCCN(C(=O)CCC#N)C3)n2)cn1` [Example 136, (S)-4-(3-(((5-chloro-2-((1-methyl-1H-pyrazol-4-yl)amino)pyrimidin-4-yl)amino)methyl)piperidin-1-yl)-4-oxobutanenitrile], for which the “Selectivity ratio over JAK2, JAK3” value at JAK3 is recorded as “JAK3 = 78”. For the same compound, the IC50 at JAK3 was under 100 nM; at JAK2, 100 to 1000 nM; on JAK1, 100 to 1000 nM; on TYK2, 100 to 1000 nM.
On to `Cn1cc(Nc2ncc(Cl)c(NC[C@H]3CCCN3CC#N)n2)cn1` [Example 131, (R)-2-(2-(((5-chloro-2-((1-methyl-1H-pyrazol-4-yl)amino)pyrimidin-4-yl)amino)methyl)pyrrolidin-1-yl)acetonitrile], for which the “Selectivity ratio over JAK2, JAK3” value on JAK3 is reported as “JAK3 = 85”. Besides, the IC50 was under 100 nM on JAK3, 100 to 1000 nM at JAK2, under 100 nM on JAK1 and under 100 nM on TYK2.
For `Cc1cnc(Nc2cnn(C)c2)nc1NC[C@H]1CCCN1CCC#N` [Example 108, (R)-3-(2-(((5-methyl-2-((1-methyl-1H-pyrazol-4-yl)amino)pyrimidin-4-yl)amino)methyl)pyrrolidin-1-yl)propanenitrile], the IC50 on JAK3 was 100 to 1000 nM; on JAK2, 1000 to 10000 nM; at JAK1, 100 to 1000 nM; on TYK2 it was under 100 nM. The “Selectivity ratio over JAK2, Tyk2” value at TYK2 is “Tyk2 = 80”.
For the compound `CNC(=O)Cn1cc(Nc2ncc(Cl)c(NC[C@H]3CCCN3S(C)(=O)=O)n2)cn1` [Example 67, (R)-2-(4-(5-chloro-4-((1-(methylsulfonyl)pyrrolidin-2-yl)methylamino)pyrimidin-2-ylamino)-1H-pyrazol-1-yl)-N-methylacetamide], the IC50 at JAK3, on JAK2, on JAK1 and at TYK2 was under 100 nM in each case. The “Selectivity ratio over JAK2, Tyk2” value on TYK2 is “Tyk2 = 13”.
For the compound `Cn1cc(Nc2ncc(Cl)c(NC[C@@H]3CCCN3C(=O)CCC#N)n2)cn1` [Example 92, (S)-4-(2-(((5-chloro-2-((1-methyl-1H-pyrazol-4-yl)amino)pyrimidin-4-yl)amino)methyl)pyrrolidin-1-yl)-4-oxobutanenitrile], the IC50 at JAK3 is under 100 nM; on JAK2, 100 to 1000 nM; on JAK1, under 100 nM; on TYK2, under 100 nM. Also, the “Selectivity ratio over JAK2, JAK1” value at JAK1 was “JAK1 = 30”.
For the compound `CC(=O)N1CCC[C@@H]1CNc1nc(Nc2cnn(C)c2)ncc1Cl` [Example 1, (R)-1-(2-(((5-chloro-2-((1-methyl-1H-pyrazol-4-yl)amino)pyrimidin-4-yl)amino)methyl)pyrrolidin-1-yl)ethanone], the IC50 is under 100 nM at JAK3, 1000 to 10000 nM at JAK2, 100 to 1000 nM at JAK1 and under 100 nM on TYK2. For the same compound, the “Selectivity ratio over JAK2, JAK1” value at JAK1 is “JAK1 = 8”.
For `Cn1cc(Nc2ncc(Cl)c(NC[C@@H]3CCCCN3S(C)(=O)=O)n2)cn1` [Example 36, (S)-5-chloro-N^2-(1-methyl-1H-pyrazol-4-yl)-N^4-((1-(methylsulfonyl)piperidin-2-yl)methyl)pyrimidine-2,4-diamine], the “Selectivity ratio over JAK2, JAK3” value at JAK3 is “JAK3 = 54”. Also, the IC50 at JAK3 was 100 to 1000 nM; on JAK2 it was 1000 to 10000 nM; at JAK1 it was under 100 nM; on TYK2, 100 to 1000 nM.
For the compound `Cc1cnc(Nc2cnn(C)c2)nc1NC[C@@H]1C[C@H](F)CN1CC#N` [Example 102, 2-((2S,4S)-4-fluoro-2-(((5-methyl-2-((1-methyl-1H-pyrazol-4-yl)amino)pyrimidin-4-yl)amino)methyl)pyrrolidin-1-yl)acetonitrile], the IC50 on JAK3 was 100 to 1000 nM; at JAK2, 1000 to 10000 nM; on JAK1, under 100 nM; on TYK2 it was 100 to 1000 nM. Further, the “Selectivity ratio over JAK2, JAK1” value on JAK1 is “JAK1 = 16”.
As to `Cl.Cn1cc(Nc2ncc(F)c(NC[C@@H]3CCCN3S(C)(=O)=O)n2)cn1` [Example 75, (S)-5-fluoro-N2-(1-methyl-1H-pyrazol-4-yl)-N4-((1-(methylsulfonyl)pyrrolidin-2-yl)methyl)pyrimidine-2,4-diamine Hydrochloride], the IC50 at JAK3 was 100 to 1000 nM; on JAK2, 1000 to 10000 nM; at JAK1 it was under 100 nM; on TYK2 it was under 100 nM. In addition, the “Selectivity ratio over JAK2, Tyk2” value on TYK2 is reported as “Tyk2 = 28”.
For the compound `Cc1cnc(Nc2cnn(CC(F)F)c2)nc1NC[C@H]1CCCN1C(=O)CC#N` [Example 118, (R)-3-(2-(((2-((1-(2,2-difluoroethyl)-1H-pyrazol-4-yl)amino)-5-methylpyrimidin-4-yl)amino)methyl)pyrrolidin-1-yl)-3-oxopropanenitrile], the IC50 at JAK3 was 100 to 1000 nM; on JAK2, 100 to 1000 nM; on JAK1, under 100 nM; at TYK2, under 100 nM. Further, the “Selectivity ratio over JAK2, JAK1” value on JAK1 is “JAK1 = 69”.
For `CC(C)NC(=O)Cn1cc(Nc2nccc(NC[C@H]3CCCN3CCC#N)n2)cn1` [Example 83, (R)-2-(4-((4-(((1-(2-cyanoethyl)pyrrolidin-2-yl)methyl)amino)pyrimidin-2-yl)amino)-1H-pyrazol-1-yl)-N-isopropylacetamide], the IC50 was 1000 to 10000 nM on JAK3, over 10000 nM at JAK2, 1000 to 10000 nM on JAK1 and under 100 nM on TYK2. Further, on TYK2, the “Selectivity ratio over JAK2, Tyk2” value is listed as “Tyk2 = 650”.
For `Cn1cc(Nc2ncc(Cl)c(NC[C@H]3CCCN3CCC(F)(F)F)n2)cn1` [Example 80, (R)-5-chloro-N^2-(1-methyl-1H-pyrazol-4-yl)-N^4-((1-(3,3,3-trifluoropropyl)pyrrolidin-2-yl)methyl)pyrimidine-2,4-diamine], the concentration for half-maximal inhibition (IC50) was 100 to 1000 nM on JAK3, under 100 nM at JAK2, under 100 nM at JAK1 and under 100 nM on TYK2. The “Selectivity ratio over JAK2, Tyk2” value on TYK2 is listed as “Tyk2 = 33”.
For the compound `Cn1cc(Nc2ncc(Cl)c(NC[C@H]3CCCN3CCCC#N)n2)cn1` [Example 97, (R)-4-(2-(((5-chloro-2-((1-methyl-1H-pyrazol-4-yl)amino)pyrimidin-4-yl)amino)methyl)pyrrolidin-1-yl)butanenitrile], the “Selectivity ratio over JAK2, JAK3” value on JAK3 was “JAK3 = 160”. The IC50 at JAK3 was under 100 nM; on JAK2, 1000 to 10000 nM; at JAK1, under 100 nM; on TYK2 it was under 100 nM.
On to `CC(=O)N1CCCC[C@H]1CNc1nc(Nc2cnn(C)c2)ncc1Cl` [Example 32, (S)-1-(2-(((5-chloro-2-((1-methyl-1H-pyrazol-4-yl)amino)pyrimidin-4-yl)amino)methyl)piperidin-1-yl)ethanone], for which the IC50 on JAK3 is 1000 to 10000 nM; on JAK2, over 10000 nM; at JAK1, 1000 to 10000 nM; on TYK2 it was 1000 to 10000 nM.

By IC50 is commonly meant the concentration needed to halve the response being measured.
